Our source for the IC50 values is patent US7781428B2 (Pfizer Inc., priority 2006, dated 2010).

This test has as its target T1, mineralocorticoid receptor (MR) (Homo sapiens, UniProt P08235).
T1 construct: expressed in transfected cells; host or cells: Huh7 (human liver cells)
T1 sequence (P08235 726-964 limits assumed): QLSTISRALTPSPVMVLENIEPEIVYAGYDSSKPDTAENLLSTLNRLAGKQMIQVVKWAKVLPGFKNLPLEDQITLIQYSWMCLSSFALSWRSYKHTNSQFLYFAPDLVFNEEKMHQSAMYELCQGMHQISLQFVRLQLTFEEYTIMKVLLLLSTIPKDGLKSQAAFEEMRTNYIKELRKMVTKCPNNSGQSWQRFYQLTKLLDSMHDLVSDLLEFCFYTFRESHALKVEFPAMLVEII
The test can be described thus: Cell-based Gal4 response element-controlled luciferase reporter assay (MR antagonism). The note with it: Huh7 human liver cells transfected with Gal4 DBD-MR LBD fusion and luciferase reporter; block of agonist-induced activation; overnight incubation. The source says:
Method 1: Cell-based Gal4 Response Element-controlled Luciferase Reporter Assay
An in vitro assay can be used to evaluate mineralocorticoid receptor (MR) antagonism by a test compound. […] An agonist of the receptor can bind to and activate the receptor LBD, which activate the expression of the Gal4 response element containing luciferase reporter gene. Antagonists can compete for binding to the receptor LBDs and decrease the transcription activity of the reporter gene. Measurement of luciferase activity allows quantitative determinations of the reporter transcription in the presence of either agonists or agonists and antagonists in combination. β-galactosidase activity, which is unaffected by ligand, is used to normalize the transfection efficiency in the cell population.
Huh7 cells were plated in RPMI1640+10% fetal bovine serum (Invitrogen Corporation, San Diego, Calif.), at 10,000 cells per well in 96-well tissue culture dishes for approximately 24 hours. Cells were then transfected using FuGENE™ 6 Transfection Reagent according to manufacturers' instructions (Roche Molecular Biochemicals, Indianapolis, Ind.). Approximately 20 hours after transfection, media were removed. Cells were washed once with PBS and treated (n=6/group) with agonist for each receptor (all chemicals from Sigma, St. Louis, Mo.), and with compounds. Agonist concentrations represent 70-80% of full activation of each receptor.
Compounds were dissolved in DMSO at 10 mM and diluted to final concentrations in phenol red-free media that contained 10% charcoal- and dextran-stripped serum (Life Technologies, Gathersburg, Md.). Following overnight incubation (18-20 hours) with compounds, the medium was removed and replaced with 100 μL per well of PBS and 100 μL of Steady-Glo™ lysis buffer with luciferase substrate (Promega Corporation, Madison, Wis.). After a 30-minute incubation to completely lyse the cells, 100 μL of the lysate was transferred to a black, Dynatech Microfluor assay plates (Dynex Corporation, Chantilly, Va.) to measure luciferase activity. The plate was sealed with TopSeal self-adhesive film, dark-adapted for 5 minutes, then counted in a TopCount Plate Reader (Packard Instrument Company, Meriden, Conn.) in single photon counting mode. The remaining lysate was used for determination of β-galactosidase activity. In a clear 96-well assay plate, 100 μL of cell lysate was added to 100 μL β-galactosidase assay buffer per well. The assay buffer consisted of 60 mM Na2HPO4, 40 mM NaH2PO4, 10 mM KCl, 1 mM MgSO4, 50 mM β-mercaptoethanol, and 2.5 mg/mL ONPG, the latter two reagents were added just prior to assay (all chemicals from Sigma). The reaction was allowed to proceed until a distinct yellow color developed. Reactions were stopped by the addition of 100 μL per well 1 M Na2CO3 and plates were read at 420 nm in Victor-2 (Perkin Elmer Life Sciences, Boston, Mass.). Values (relative luciferase activity) for each sample were expressed as a ratio of luciferase activity to OD420β-galactosidase activity measured in arbitrary units for each well. […] “b” is the slope, “c” is the IC50 or EC50. “x” is the concentration of the compound and “y” the activity at that concentration.

Structures are written as SMILES.

As for `Cc1cc(N2N=C3c4ccc(C(=O)O)cc4OCC3C2C(C)C)ccc1C#N` (stereo not shown) [Example 73, 2-(4-cyano-3-methylphenyl)-3-isopropyl-2,3,3a,4-tetrahydrochromeno[4,3-c]pyrazole-7-carboxylic acid], the IC50 was determined as 0.167 µM.

Turning to `Cc1cc(N2N=C3c4ccc(O)cc4CC[C@@H]3[C@@H]2c2ccc(F)cc2)ccc1C#N` [Example 81, 4-((3R,3aR)-3-(4-fluorophenyl)-7-hydroxy-3,3a,4,5-tetrahydrobenzo[g]indazol-2-yl)-2-methylbenzonitrile], the IC50 was 0.035 µM. For `C[S+]([O-])CCNC(=O)c1ccc2c(c1)CC[C@H]1C2=NN(c2ccc(C#N)c(Cl)c2)[C@H]1c1ccc(F)cc1` (mixture of isomers) [Example 101, (±)-(3RS,3aRS)-2-(3-chloro-4-cyanophenyl)-3-(4-fluorophenyl)-N-[2-(methylsulfinyl)ethyl]-3,3a,4,5-tetrahydro-2H-benzo[g]indazole-7-carboxamide] the value was 0.023 µM; for `N#Cc1ccc(N2N=C3c4ccc(O)cc4CCC3C2c2ccc(F)cc2)cc1C(F)(F)F` (racemic) [Example 83], 0.077 µM; for `Cc1cc(N2N=C3c4ccc(C(=O)O)cc4CC[C@@H]3[C@@H]2c2ccc(F)cc2)ccc1C#N` [Example 7, (3R,3aR)-2-(4-cyano-3-methylphenyl)-3-(4-fluorophenyl)-3,3a,4,5-tetrahydro-2H-benzo[g]indazole-7-carboxylic acid], 0.0172 µM. The same measure for `N#Cc1ccc(N2N=C3c4ccc(C(=O)NCCCCCC(=O)O)cc4CC[C@@H]3[C@@H]2c2ccc(F)cc2)cc1Cl` (racemic) [Example 103, (±)-6-((3RS,3aRS)-2-(3-chloro-4-cyanophenyl)-3-(4-fluorophenyl)-3,3a,4,5-tetrahydro-2H-benzo[g]indazole-7-carboxamido)hexanoic acid]: 0.113 µM; for `N#Cc1ccc(N2N=C3c4ccc(O)cc4CCC3C2c2ccc(F)cc2)cc1Cl` (racemic) [Example 86, 2-chloro-4-(-3-(4-fluorophenyl)-7-hydroxy-3,3a,4,5-tetrahydrobenzo[g]indazol-2-yl)benzonitrile]: 0.086 µM. Take `N#Cc1ccc(N2N=C3c4cc(C(=O)O)ccc4CCC3C2c2ccc(F)cc2)cc1Cl` (racemic) [Example 5, 2-(3-chloro-4-cyanophenyl)-3-(4-fluorophenyl)-3,3a,4,5-tetrahydro-2H-benzo[g]indazole-8-carboxylic acid]: the IC50 is 3.7 µM. For `N#Cc1ccc(N2N=C3c4ccc(C(=O)NCCCCC(=O)O)cc4CC[C@@H]3[C@@H]2c2ccc(F)cc2)cc1Cl` (racemic) [Example 104, (±)-5-((3RS,3aRS)-2-(3-chloro-4-cyanophenyl)-3-(4-fluorophenyl)-3,3a,4,5-tetrahydro-2H-benzo[g]indazole-7-carboxamido)pentanoic acid] the value was 0.122 µM.

For the molecule `CCOC(=O)c1ccc2c(c1)CCC1C2=NN(c2ccc(C#N)c(Cl)c2)C1c1ccc(F)cc1` (stereo not shown) [Example 1, ethyl 2-(3-chloro-4-cyanophenyl)-3-(4-fluorophenyl)-3,3a,4,5-tetrahydro-2H-benzo[g]indazole-7-carboxylate], the IC50 was 1.07 µM. For `N#Cc1ccc(N2N=C3c4ccc(C(=O)O)cc4OCC3C2c2ccc(F)cc2)cc1` (racemic) [Example 58, 2-(4-cyanophenyl)-3-(4-fluorophenyl)-2,3,3a,4-tetrahydrochromeno[4,3-c]pyrazole-7-carboxylic acid] the value was 3.18 µM. Consider `N#Cc1ccc(N2N=C3c4ccc(C(=O)O)cc4OCC3C2C2CCCC2)cc1` (racemic) [Example 70, 2-(4-cyanophenyl)-3-cyclopentyl-2,3,3a,4-tetrahydrochromeno[4,3-c]pyrazole-7-carboxylic acid], for which the IC50 is 0.906 µM. For `N#Cc1ccc(N2N=C3c4ccc(C(=O)NCCOCC(=O)O)cc4CC[C@@H]3[C@@H]2c2ccc(F)cc2)cc1Cl` (racemic) [Example 109, (±)-2-(2-((3RS,3aRS)-2-(3-chloro-4-cyanophenyl)-3-(4-fluorophenyl)-3,3a,4,5-tetrahydro-2H-benzo[g]indazole-7-carboxamido)ethoxy)acetic acid] the value was over 1 µM; for `N#Cc1ccc(N2N=C3c4ccc(C(=O)NCCO)cc4CC[C@@H]3[C@@H]2C2CCCC2)cc1Cl` [Example 115, (3S,3aR)-2-(3-chloro-4-cyanophenyl)-3-cyclopentyl-N-(2-hydroxyethyl)-3,3a,4,5-tetrahydro-2H-benzo[g]indazole-7-carboxamide], 0.003 µM; for `CS(=O)(=O)CCNC(=O)c1ccc2c(c1)CCC1C2=NN(c2ccc(C#N)c(Cl)c2)C1c1ccc(F)cc1` (racemic) [Example 97, (±)-(3RS,3aRS)-2-(3-chloro-4-cyanophenyl)-3-(4-fluorophenyl)-N-(2-(methylsulfonyl)ethyl)-3,3a,4,5-tetrahydro-2H-benzo[g]indazole-7-carboxamide], 0.012 µM.

As for `N#Cc1ccc(N2N=C3c4ccc(C(=O)NCCS(N)(=O)=O)cc4CC[C@@H]3[C@@H]2C2CCOCC2)cc1Cl` (racemic) [Example 105, (±)-(3SR,3aRS)—N-[2-(aminosulfonyl)ethyl]-2-(3-chloro-4-cyanophenyl)-3-(tetrahydro-2H-pyran-4-yl)-3,3a,4,5-tetrahydro-2H-benzo[g]indazole-7-carboxamide], the IC50 amounted to 0.141 µM.

As for `Cc1cc(N2N=C3c4ccc(C(=O)O)cc4OC[C@@H]3[C@@H]2C2=CCCC2)ccc1C#N` (racemic) [Example 77, (±)-(3RS,3aRS)-2-(4-cyano-3-methylphenyl)-3-cyclopentenyl-2,3,3a,4-tetrahydrochromeno[4,3-c]pyrazole-7-carboxylic acid], the IC50 came out at 0.013 µM. With `N#Cc1ccc(N2N=C3c4ccc(C(=O)O)cc4CCC3C2c2ccno2)cc1` (racemic) [Example 52, 2-(4-cyanophenyl)-3-isoxazol-5-yl-3,3a,4,5-tetrahydro-2H-benzo[g]indazole-7-carboxylic acid], the IC50 came to 4.98 µM. For `C[C@]12CCc3cc(C(=O)O)ccc3C1=NN(c1ccc(C#N)c(Cl)c1)[C@H]2C1CCCC1` [Example 94, (3S,3aR)-2-(3-chloro-4-cyanophenyl)-3-cyclopentyl-3a-methyl-3,3a,4,5-tetrahydro-2H-benzo[g]indazole-7-carboxylic acid] the value was 0.025 µM. For `Cc1cc(N2N=C3c4ccc(C(=O)O)cc4OC[C@@H]3[C@@H]2C2CCCC2)ccc1C#N` (single isomer, unassigned) [Example 62] the value was 0.026 µM; for `CS(=O)(=O)NC(=O)c1ccc2c(c1)CC[C@H]1C2=NN(c2ccc(C#N)c(Cl)c2)[C@H]1c1ccc(F)cc1` (racemic) [Example 113, (±)-(3RS,3aRS)-2-(3-chloro-4-cyanophenyl)-3-(4-fluorophenyl)-N-(methylsulfonyl)-3,3a,4,5-tetrahydro-2H-benzo[g]indazole-7-carboxamide], 0.995 µM; for `N#Cc1ccc(N2N=C3c4ccc(C(=O)O)cc4OC[C@@H]3[C@@H]2C2CCCC2)cc1` [Example 71, (3S,3aR)-2-(4-cyanophenyl)-3-cyclopentyl-2,3,3a,4-tetrahydrochromeno[4,3-c]pyrazole-7-carboxylic acid], 0.205 µM.
